Source: US11535594B2, “Microbiocidal picolinamide derivatives” (Syngenta Participations AG, priority 2017, dated 2022)

Columns and labels:
[1] = tested on: Phaeosphaeria nodorum (Septoria nodorum); assay: Phaeosphaeria nodorum (Septoria nodorum) / wheat / leaf disc preventative (glume blotch); type: in vivo; details: Parastagonospora nodorum, foliar, 120 h, wheat leaf segments cv. Kanzler, inoculated 2 days after application, assessed 5-7 days after application, compared to untreated, read-out: disease control
Method: Phaeosphaeria nodorum (Septoria nodorum)/Wheat/Leaf Disc Preventative (Glume Blotch) Wheat leaf segments cv. Kanzler are placed on agar in a multiwell plate (24-well format) and sprayed with the formulated test compound diluted in water. The leaf disks are inoculated with a spore suspension of the fungus 2 days after application. The inoculated test leaf disks are incubated at 20° C. and 75% rh under a light regime of 12 h light/12 h darkness in a climate cabinet and the activity of a compound is assessed as percent disease control compared to untreated when an appropriate level of disease damage appears in untreated check leaf disks (5-7 days after application).

[2] = tested on: Puccinia Recondite f. Sp. Tritici; assay: Puccinia recondita f. sp. tritici / wheat / leaf disc preventative (brown rust); type: in vivo; details: foliar, wheat leaf segments cv. Kanzler, inoculated 1 day after application, assessed 7-9 days after application, compared to untreated, read-out: disease control
Method: Puccinia Recondite f. Sp. Tritici/Wheat/Leaf Disc Preventative (Brown Rust) Wheat leaf segments cv. Kanzler are placed on agar in multiwell plates (24-well format) and sprayed with the formulated test compound diluted in water. The leaf disks are inoculated with a spore suspension of the fungus 1 day after application. The inoculated leaf segments are incubated at 19° C. and 75% rh under a light regime of 12 h light/12 h darkness in a climate cabinet and the activity of a compound is assessed as percent disease control compared to untreated when an appropriate level of disease damage appears in untreated check leaf segments (7-9 days after application).

[3] = tested on: Glomerella Lagenarium (Colletotrichum lagenarium); assay: Glomerella lagenarium (Colletotrichum lagenarium) / liquid culture (anthracnose); type: cell-based; details: Colletotrichum orbiculare, PDB potato dextrose broth, 24° C., 3 to 4 days after application, compared to untreated checks, read-out: disease control (inhibition of growth, photometric)
Method: Glomerella Lagenarium (Colletotrichum lagenarium)/Liquid Culture (Anthracnose) Conidia of the fungus from cryogenic storage are directly mixed into nutrient broth (PDB potato dextrose broth). After placing a (DMSO) solution of test compound into a microtiter plate (96-well format), the nutrient broth containing the fungal spores is added. The test plates are incubated at 24° C. and the inhibition of growth is measured photometrically 3 to 4 days after application.

[4] = tested on: Mycosphaerella Graminicola (Septoria tritici); assay: Mycosphaerella graminicola (Septoria tritici) / liquid culture (Septoria blotch); type: cell-based; details: Zymoseptoria tritici, PDB potato dextrose broth, 24° C., 4 to 5 days after application, compared to untreated checks, read-out: disease control (inhibition of growth, photometric)
Method: (§1) Mycosphaerella Graminicola (Septoria tritici)/Liquid Culture (Septoria Blotch) Conidia of the fungus from cryogenic storage are directly mixed into nutrient broth (PDB potato dextrose broth). After placing a (DMSO) solution of test compound into a microtiter plate (96-well format), the nutrient broth containing the fungal spores is added. The test plates are incubated at 24° C. and the inhibition of growth is determined photometrically 4 to 5 days after application.

[5] = tested on: Mycosphaerella arachidis (Cercospora arachidicola); assay: Mycosphaerella arachidis (Cercospora arachidicola) / liquid culture (early leaf spot); type: cell-based; details: PDB potato dextrose broth, 24° C., 4-5 days after application, compared to untreated checks, read-out: disease control (inhibition of growth, photometric)
Method: as §1, with “arachidis (Cercospora arachidicola)/Liquid” for “Graminicola (Septoria tritici)/Liquid”, “(Early Leaf Spot)” for “(Septoria Blotch)”, “4-5” for “4 to 5”

[6] = tested on: Botryotinia fuckeliana (Botrytis cinerea); assay: Botryotinia fuckeliana (Botrytis cinerea) / liquid culture (gray mould); type: cell-based; details: Vogels broth, 24° C., 3-4 days after application, compared to untreated checks, read-out: disease control (inhibition of growth, photometric)
Method: as §1, with “Botryotinia fuckeliana (Botrytis cinerea)/Liquid” for “Mycosphaerella Graminicola (Septoria tritici)/Liquid”, “(Gray Mould)” for “(Septoria Blotch)”, “(Vogels” for “(PDB potato dextrose”, “3-4” for “4 to 5”

[7] = tested on: Monographella nivalis (Microdochium nivale); assay: Monographella nivalis (Microdochium nivale) / liquid culture (foot rot cereals); type: cell-based; details: PDB potato dextrose broth, 24° C., 4-5 days after application, compared to untreated checks, read-out: disease control (inhibition of growth, photometric)
Method: as §1, with “Monographella nivalis (Microdochium nivale)/Liquid” for “Mycosphaerella Graminicola (Septoria tritici)/Liquid”, “(Foot Rot Cereals)” for “(Septoria Blotch)”, “4-5” for “4 to 5”

[8] = tested on: Magnaporthe grisea (Pyricularia oryzae); assay: whole plant or invertebrate; type: in vivo; details: foliar, read-out: disease control

COc1ccc(C(c2ccc(OC)cc2)N(C)OC(=O)[C@H](C)NC(=O)c2nccc(OC)c2O)cc1 [I.ab.01, [bis(4-methoxy phenyl)methyl-methyl-amino] (2S)-2-[(3-hydroxy-4-methoxy-pyridine-2-carbonyl)amino]propanoate]
≥ 80%: pest or weed control at 200 ppm [1] | pest or weed control at 200 ppm [2] | inhibition at 200 ppm [3] | inhibition at 200 ppm [4] | inhibition at 200 ppm [5] | inhibition at 200 ppm [6]

CCOc1ccc(C(c2ccc(OCC)cc2)N(C)OC(=O)[C@H](C)NC(=O)c2nccc(OC)c2O)cc1 [I.ac.01, [bis(4-ethoxy phenyl)methyl-methyl-amino] (2S)-2-[(3-hydroxy-4-methoxy-pyridine-2-carbonyl)amino]propanoate]
≥ 80%: inhibition at 200 ppm [7] | pest or weed control at 200 ppm [1] | pest or weed control at 200 ppm [2] | inhibition at 200 ppm [3] | inhibition at 200 ppm [4] | inhibition at 200 ppm [5] | inhibition at 200 ppm [6]

COc1ccnc(C(=O)N[C@@H](C)C(=O)ON(C)C(c2ccccc2)C2CCCC2)c1O (stereo partly drawn) [I.h.01, [[cyclopentyl(phenyl)methyl]-methyl-amino] (2S)-2-[(3-hydroxy-4-methoxy-pyridine-2-carbonyl)amino] propanoate]
≥ 80%: pest or weed control at 200 ppm [8] | pest or weed control at 200 ppm [1] | pest or weed control at 200 ppm [2] | inhibition at 200 ppm [3] | inhibition at 200 ppm [4] | inhibition at 200 ppm [5]

COc1ccnc(C(=O)N[C@@H](C)C(=O)ON(C)C(c2ccccc2)c2ccccc2)c1O [I.m.01, [benzhydryl(methyl)amino] (2S)-2-[(3-hydroxy-4-methoxy-pyridine-2-carbonyl)amino]propanoate]
≥ 80%: pest or weed control at 200 ppm [8] | inhibition at 200 ppm [7] | pest or weed control at 200 ppm [1] | pest or weed control at 200 ppm [2] | inhibition at 200 ppm [3] | inhibition at 200 ppm [4] | inhibition at 200 ppm [5] | inhibition at 200 ppm [6]

COc1ccnc(C(=O)N[C@@H](C)C(=O)ON(C)C(C)(c2ccccc2)c2ccccc2)c1O [I.m.02, [1,1-diphenylethyl (methyl)amino] (2S)-2-[(3-hydroxy-4-methoxy-pyridine-2-carbonyl)amino] propanoate]
≥ 80%: pest or weed control at 200 ppm [8] | pest or weed control at 200 ppm [1] | pest or weed control at 200 ppm [2] | inhibition at 200 ppm [4] | inhibition at 200 ppm [5]

CCC(c1ccccc1)(c1ccccc1)N(C)OC(=O)[C@H](C)NC(=O)c1nccc(OC)c1O [I.m.03, [1,1-diphenylpropyl (methyl)amino] (2S)-2-[(3-hydroxy-4-methoxy-pyridine-2-carbonyl)amino]propanoate]
≥ 80%: inhibition at 200 ppm [7] | pest or weed control at 200 ppm [1] | inhibition at 200 ppm [4] | inhibition at 200 ppm [5] | inhibition at 200 ppm [6]

COc1ccnc(C(=O)N[C@@H](C)C(=O)ON(C)C(c2ccccc2)c2ccc(F)cc2)c1O (stereo partly drawn) [I.n.01, [[(4-fluorophenyl)-phenyl-methyl]-methyl-amino] (2S)-2-[(3-hydroxy-4-methoxy-pyridine-2-carbonyl)amino]propanoate]
≥ 80%: pest or weed control at 200 ppm [8] | inhibition at 200 ppm [7] | pest or weed control at 200 ppm [1] | pest or weed control at 200 ppm [2] | inhibition at 200 ppm [3] | inhibition at 200 ppm [4] | inhibition at 200 ppm [5]

COc1ccnc(C(=O)N[C@@H](C)C(=O)ON(C)C(c2ccc(F)cc2)c2ccc(F)cc2)c1O [I.s.01, [bis(4-fluorophenyl)methyl-methyl-amino] (2S)-2-[(3-hydroxy-4-methoxy-pyridine-2-carbonyl)amino]propanoate]
≥ 80%: pest or weed control at 200 ppm [8] | inhibition at 200 ppm [7] | pest or weed control at 200 ppm [1] | pest or weed control at 200 ppm [2] | inhibition at 200 ppm [3] | inhibition at 200 ppm [4] | inhibition at 200 ppm [5]

COc1ccnc(C(=O)N[C@@H](C)C(=O)ON(C)C(C)(c2ccc(F)cc2)c2ccc(F)cc2)c1O [I.s.02, [1,1-bis(4-fluorophenyl)ethyl-methyl-amino] (2S)-2-[(3-hydroxy-4-methoxy-pyridine-2-carbonyl)amino] propanoate]
≥ 80%: pest or weed control at 200 ppm [8] | pest or weed control at 200 ppm [1] | inhibition at 200 ppm [3] | inhibition at 200 ppm [4] | inhibition at 200 ppm [5] | inhibition at 200 ppm [6]

COc1ccnc(C(=O)N[C@@H](C)C(=O)ON(C)C(C)(c2ccc(F)cc2)c2ccc(F)cc2)c1OC(C)=O [I.s.14, [1,1-bis(4-fluorophenyl)ethyl-methyl-amino] (2S)-2-[(3-acetoxy-4-methoxy-pyridine-2-carbonyl)amino] propanoate]
≥ 80%: pest or weed control at 200 ppm [8] | pest or weed control at 200 ppm [1] | inhibition at 200 ppm [4] | inhibition at 200 ppm [5]

COc1ccnc(C(=O)N[C@@H](C)C(=O)ON(C)C(c2ccc(F)cc2)c2ccc(Cl)cc2)c1O (stereo partly drawn) [I.t.01, [[(4-chlorophenyl)-(4-fluorophenyl)methyl]-methyl-amino] (2S)-2-[(3-hydroxy-4-methoxy-pyridine-2-carbonyl)amino] propanoate]
≥ 80%: pest or weed control at 200 ppm [1] | pest or weed control at 200 ppm [2] | inhibition at 200 ppm [3] | inhibition at 200 ppm [5] | inhibition at 200 ppm [6]

COc1ccnc(C(=O)N[C@@H](C)C(=O)ON(C)C(c2ccc(Cl)cc2)c2ccc(Cl)cc2)c1O [I.u.01, [bis(4-chlorophenyl)methyl-methyl-amino] (2S)-2-[(3-hydroxy-4-methoxy-pyridine-2-carbonyl)amino] propanoate]
≥ 80%: pest or weed control at 200 ppm [8] | pest or weed control at 200 ppm [1] | pest or weed control at 200 ppm [2] | inhibition at 200 ppm [3] | inhibition at 200 ppm [4] | inhibition at 200 ppm [5]

COc1ccnc(C(=O)N[C@@H](C)C(=O)ON(C)C(C)(c2ccc(Cl)cc2)c2ccc(Cl)cc2)c1O [I.u.02, [1,1-bis(4-chlorophenyl)ethyl-methyl-amino] (2S)-2-[(3-hydroxy-4-methoxy-pyridine-2-carbonyl)amino]propanoate]
≥ 80%: inhibition at 200 ppm [7] | pest or weed control at 200 ppm [1] | inhibition at 200 ppm [3] | inhibition at 200 ppm [4] | inhibition at 200 ppm [5] | inhibition at 200 ppm [6]

COc1ccnc(C(=O)N[C@@H](C)C(=O)ON(C)C(C)(c2ccc(Cl)cc2)c2ccc(Cl)cc2)c1OCOC(=O)C(C)C [I.u.26, [2-[[(1S)-2-[1,1-bis(4-chlorophenyl)ethyl-methyl-amino]oxy-1-methyl-2-oxo-ethyl]carbamoyl]-4-methoxy-3-pyridyl] oxymethyl 2-methylpropanoate]
≥ 80%: inhibition at 200 ppm [7] | pest or weed control at 200 ppm [2] | inhibition at 200 ppm [4] | inhibition at 200 ppm [5] | inhibition at 200 ppm [6]

COc1ccnc(C(=O)N[C@@H](C)C(=O)ON(C)C(c2ccc(C)cc2)c2ccc(C)cc2)c1O [I.v.01, [bis-p-tolylmethyl (methyl)amino] (2S)-2-[(3-hydroxy-4-methoxy-pyridine-2-carbonyl)amino]propanoate]
≥ 80%: inhibition at 200 ppm [7] | pest or weed control at 200 ppm [2] | inhibition at 200 ppm [3] | inhibition at 200 ppm [4] | inhibition at 200 ppm [5] | inhibition at 200 ppm [6]
